Our source for the IC50 values is patent US11466016B2, “Pharmaceutical compounds” (priority 2018, dated 2022).

Counter-ions that a name gives are not always drawn. Like-named read-outs stand apart in the source and are kept apart here.

This experiment has as its target SHP2 (Homo sapiens (Human), UniProt Q06124). The experiment is described as follows: SHP2 Biochemical Assay (DiFMUP conversion, pIRS1 activating peptide).
Setting [1] is: DiFMUP substrate, 0.25 μM pIRS1 peptide, 30 min pre-incubation, average where more than one data point, read-out: SHP2 (IC50).

By IC50 is commonly meant the concentration that inhibits the measured activity by half.

Chain of SHP2 (Q06124 whole entry): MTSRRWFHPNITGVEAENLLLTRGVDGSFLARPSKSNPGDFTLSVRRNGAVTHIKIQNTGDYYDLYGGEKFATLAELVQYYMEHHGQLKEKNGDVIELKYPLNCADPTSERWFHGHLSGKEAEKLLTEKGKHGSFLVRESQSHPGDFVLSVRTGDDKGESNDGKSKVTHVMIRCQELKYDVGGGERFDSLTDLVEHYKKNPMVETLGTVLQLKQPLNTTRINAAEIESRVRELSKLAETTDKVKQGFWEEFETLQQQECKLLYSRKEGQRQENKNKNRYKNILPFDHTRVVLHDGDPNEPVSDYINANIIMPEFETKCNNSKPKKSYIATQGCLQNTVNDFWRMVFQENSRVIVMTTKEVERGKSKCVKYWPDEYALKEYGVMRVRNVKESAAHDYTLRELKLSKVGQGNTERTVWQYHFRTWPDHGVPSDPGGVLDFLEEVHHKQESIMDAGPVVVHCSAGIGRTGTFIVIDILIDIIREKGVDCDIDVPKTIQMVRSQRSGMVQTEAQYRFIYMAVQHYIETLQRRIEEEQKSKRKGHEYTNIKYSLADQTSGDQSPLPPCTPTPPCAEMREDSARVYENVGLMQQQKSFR

On to `CC(C)n1cc2c(Cl)c(-c3n[nH]c4nc(N5[C@H]6CC[C@@H]5[C@@H](F)[C@@H](N)C6)c(CO)nc34)ccc2n1` [Example 101, {6-[(1R,2S,3S,5S)-3-amino-2-fluoro-8-azabicyclo[3.2.1]octan-8-yl]-3-[4-chloro-2-(propan-2-yl)-2H-indazol-5-yl]-1H-pyrazolo[3,4-b]pyrazin-5-yl}methanol], for which, under setting [1], the IC50 worked out at 21 nM. The compound `Cn1ccnc1Cn1cc2c(Cl)c(-c3c[nH]c4nc(N5[C@@H]6CC[C@H]5C[C@@H](N)C6)cnc34)ccc2n1` [Example 68, endo-8-(7-{4-chloro-2-[(1-methyl-1H-imidazol-2-yl)methyl]-2H-indazol-5-yl}-5H-pyrrolo[2,3-b]pyrazin-3-yl)-8-azabicyclo[3.2.1]octan-3-amine, trihydrochloride salt] showed an IC50 of 21 nM. On to `Cn1cc2c(Cl)c(-c3c[nH]c4nc(N5[C@H]6CC[C@@H]5[C@@H](F)[C@@H](N)C6)cnc34)ccc2n1` [Example 64, (1R,2S,3S,5S)-8-[7-(4-chloro-2-methyl-2H-indazol-5-yl)-5H-pyrrolo[2,3-b]pyrazin-3-yl]-2-fluoro-8-azabicyclo[3.2.1]octan-3-amine], for which the IC50 under setting [1] was found to be 7.7 nM. On to `Cn1cnc2ccc(-c3c[nH]c4nc(N5[C@@H]6CC[C@H]5C[C@@H](N)C6)cnc34)c(Cl)c2c1=O` [Example 56, 6-{3-[endo-3-amino-8-azabicyclo[3.2.1]octan-8-yl]-5H-pyrrolo[2,3-b]pyrazin-7-yl}-5-chloro-3-methyl-3,4-dihydroquinazolin-4-one, hydrochloride salt], for which the half-maximal inhibitory concentration (IC50) under setting [1] is 21 nM. `Cn1nc2ccc(-c3n[nH]c4nc(N5[C@H]6CC[C@@H]5[C@@H](F)[C@@H](N)C6)c(CO)nc34)c(Cl)c2c1Cl` [Example 80, {6-[(1R,2S,3S,5S)-3-amino-2-fluoro-8-azabicyclo[3.2.1]octan-8-yl]-3-(3,4-dichloro-2-methyl-2H-indazol-5-yl)-1H-pyrazolo[3,4-b]pyrazin-5-yl}methanol]: the 50% inhibitory concentration (IC50) under setting [1] came to 5.2 nM. Still for that read-out and setting: under `CN(C)c1nc2ccc(-c3n[nH]c4nc(N5C6CCC5[C@@H](F)[C@@H](N)C6)c(CO)nc34)c(Cl)c2s1` (stereo in doubt) [Example 123, {6-[(1S,2S,3S,5R)-3-amino-2-fluoro-8-azabicyclo[3.2.1]octan-8-yl]-3-[7-chloro-2-(dimethylamino)-1,3-benzothiazol-6-yl]-1H-pyrazolo[3,4-b]pyrazin-5-yl}methanol] stands 9.7 nM. Same read-out and setting: the result for `Cn1cc2c(Cl)c(-c3c[nH]c4nc(N5CCC6(CCN6)CC5)cnc34)ccc2n1` [Example 16, 7-[7-(4-chloro-2-methyl-2H-indazol-5-yl)-5H-pyrrolo[2,3-b]pyrazin-3-yl]-1,7-diazaspiro[3.5]nonane] reads 24 nM. On the same count and under the same terms, under `N[C@H]1C[C@H]2CC[C@@H](C1)N2c1cnc2c(-c3ccc4nc(CO)sc4c3Cl)c[nH]c2n1` [Example 44, (6-{3-[endo-3-amino-8-azabicyclo[3.2.1]octan-8-yl]-5H-pyrrolo[2,3-b]pyrazin-7-yl}-7-chloro-1,3-benzothiazol-2-yl)methanol, hydrochloride salt] stands 6.8 nM. In turn, `Cc1nc2ccc(-c3n[nH]c4nc(N5[C@@H]6CC[C@H]5C[C@@H](N)C6)c(CO)nc34)c(Cl)c2s1` [Example 128, {6-[endo-3-amino-8-azabicyclo[3.2.1]octan-8-yl]-3-(7-chloro-2-methyl-1,3-benzothiazol-6-yl)-1H-pyrazolo[3,4-b]pyrazin-5-yl}methanol] had an IC50 of 7.3 nM.

On to `COc1cnc2ccc(-c3n[nH]c4nc(N5CCC(C)(N)CC5)c(C)nc34)c(Cl)c2n1` [Example 120, 1-[3-(5-chloro-3-methoxyquinoxalin-6-yl)-5-methyl-1H-pyrazolo[3,4-b]pyrazin-6-yl]-4-methylpiperidin-4-amine], for which the IC50 under setting [1] was 25 nM. With `Cn1nc2ccc(-c3n[nH]c4nc(N5[C@H]6CC[C@@H]5[C@@H](F)[C@@H](N)C6)c(CO)nc34)c(F)c2c1Br` [Example 105, {6-[(1R,2S,3S,5S)-3-amino-2-fluoro-8-azabicyclo[3.2.1]octan-8-yl]-3-(3-bromo-4-fluoro-2-methyl-2H-indazol-5-yl)-1H-pyrazolo[3,4-b]pyrazin-5-yl}methanol], the IC50 under setting [1] was determined as 8.9 nM. On the same count and under the same terms, under `Cc1nc2ccc(-c3n[nH]c4nc(N5C6CCC5[C@@H](F)[C@@H](N)C6)c(C)nc34)c(Cl)c2s1` (stereo in doubt) [Example 146, (1S,2S,3S,5R)-8-[3-(7-chloro-2-methyl-1,3-benzothiazol-6-yl)-5-methyl-1H-pyrazolo[3,4-b]pyrazin-6-yl]-2-fluoro-8-azabicyclo[3.2.1]octan-3-amine] stands 7.4 nM; under `CN(C)C(=O)Cn1cc2c(Cl)c(-c3c[nH]c4nc(N5[C@@H]6CC[C@H]5C[C@@H](N)C6)cnc34)ccc2n1` [Example 49, 2-(5-{3-[endo-3-amino-8-azabicyclo[3.2.1]octan-8-yl]-5H-pyrrolo[2,3-b]pyrazin-7-yl}-4-chloro-2H-indazol-2-yl)-N,N-dimethylacetamide], 15 nM. The same measure, in the same setting: under `COc1cnc2ccc(-c3n[nH]c4nc(N5[C@@H]6CC[C@H]5CNC6)c(CO)nc34)c(Cl)c2n1` [Example 112, [3-(5-Chloro-3-methoxyquinoxalin-6-yl)-6-{3,8-diazabicyclo[3.2.1]octan-8-yl}-1H-pyrazolo[3,4-b]pyrazin-5-yl]methanol] stands 12 nM. Still for that read-out and setting: under `Cn1cc2c(Cl)c(-c3c[nH]c4nc(N5CC[C@@H](N)[C@@H](F)C5)cnc34)ccc2n1` [Example 32, (3S,4R)-1-[7-(4-chloro-2-methyl-2H-indazol-5-yl)-5H-pyrrolo[2,3-b]pyrazin-3-yl]-3-fluoropiperidin-4-amine, hydrochloride salt] stands 56 nM; under `Cn1cc2c(Cl)c(-c3c[nH]c4nc(N5[C@@H]6CC[C@H]5C[C@@](C)(N)C6)cnc34)ccc2n1` [Example 8, endo-8-[7-(4-chloro-2-methyl-2H-indazol-5-yl)-5H-pyrrolo[2,3-b]pyrazin-3-yl]-3-methyl-8-azabicyclo[3.2.1]octan-3-amine, methanesulfonic acid salt], 17 nM. Turning to `CCn1cc2c(Cl)c(-c3n[nH]c4nc(N5[C@H]6CC[C@@H]5[C@@H](F)[C@@H](N)C6)c(C)nc34)ccc2n1` [Example 92, (1R,2S,3S,5S)-8-[3-(4-Chloro-2-ethyl-2H-indazol-5-yl)-5-methyl-1H-pyrazolo[3,4-b]pyrazin-6-yl]-2-fluoro-8-azabicyclo[3.2.1]octan-3-amine], the IC50 under setting [1] was 8.3 nM. `N[C@H]1C[C@@H]2CC[C@H]([C@H]1F)N2c1nc2[nH]nc(-c3ccc4ncc(N5CCOCC5)nc4c3Cl)c2nc1CO` [Example 147, {6-[(1R,2S,3S,5S)-3-amino-2-fluoro-8-azabicyclo[3.2.1]octan-8-yl]-3-[5-chloro-3-(morpholin-4-yl)quinoxalin-6-yl] 1H-pyrazolo[3,4-b]pyrazin-5-yl}methanol]: the IC50 under setting [1] is 14 nM. Still for that read-out and setting: the result for `Cn1nc2ccc(-c3n[nH]c4nc(N5[C@@H]6CCC[C@H]5CNC6)c(CO)nc34)c(Cl)c2c1Cl` [Example 125] reads 7.1 nM; that for `Cc1nc2c(-c3ccc4nn(C)cc4c3Cl)n[nH]c2nc1N1[C@H]2CC[C@@H]1[C@@H](F)[C@@H](N)C2` [Example 73, (1R,2S,3S,5S)-8-[3-(4-chloro-2-methyl-2H-indazol-5-yl)-5-methyl-1H-pyrazolo[3,4-b]pyrazin-6-yl]-2-fluoro-8-azabicyclo[3.2.1]octan-3-amine, hydrochloride salt], 9.8 nM; that for `Cn1nc2ccc(-c3c[nH]c4nc(N5[C@@H]6CC[C@H]5C[C@@H](N)C6)cnc34)c(Cl)c2n1` [Example 51, endo-8-[7-(4-chloro-2-methyl-2H-1,2,3-benzotriazol-5-yl)-5H-pyrrolo[2,3-b]pyrazin-3-yl]-8-azabicyclo[3.2.1]octan-3-amine], 29 nM. With `Cn1cc2c(Cl)c(-c3c[nH]c4nc(N5C6CCC5CNC6)cnc34)ccc2n1` [Example 9, 4-chloro-5-(3-{3,8-diazabicyclo[3.2.1]octan-8-yl}-5H-pyrrolo[2,3-b]pyrazin-7-yl)-2-methyl-2H-indazole], under setting [1], the 50% inhibitory concentration (IC50) is 26 nM. As to `Cc1nc2ccc(-c3c[nH]c4nc(N5[C@@H]6CC[C@H]5C[C@@H](N)C6)cnc34)c(Cl)c2c(=O)[nH]1` [Example 21, 6-{3-[endo-3-amino-8-azabicyclo[3.2.1]octan-8-yl]-5H-pyrrolo[2,3-b]pyrazin-7-yl}-5-chloro-2-methyl-3,4-dihydroquinazolin-4-one], the half-inhibitory concentration (IC50) under setting [1] came out at 11 nM. `Cn1cc2c(Cl)c(-c3n[nH]c4nc(N5[C@H]6CC[C@@H]5[C@@H](F)[C@@H](N)C6)c(CO)nc34)ccc2n1` (racemic) [Example 78, rac-{6-[(1R,2S,3S,5S)-3-amino-2-fluoro-8-azabicyclo[3.2.1]octan-8-yl]-3-(4-chloro-2-methyl-2H-indazol-5-yl)-1H-pyrazolo[3,4-b]pyrazin-5-yl}methanol] displayed an IC50 of 15 nM.

For `N[C@H]1C[C@H]2CC[C@@H](C1)N2c1cnc2c(-c3ccc4oc(=O)[nH]c4c3Cl)c[nH]c2n1` [Example 19, 5-{3-[endo-3-amino-8-azabicyclo[3.2.1]octan-8-yl]-5H-pyrrolo[2,3-b]pyrazin-7-yl}-4-chloro-2,3-dihydro-1,3-benzoxazol-2-one, hydrochloride salt], the IC50 under setting [1] was found to be 47 nM. On the same count and under the same terms, the result for `Cc1nc2c(-c3ccc4nn(C)cc4c3Cl)n[nH]c2nc1N1C2CCCC1CNC2` [Example 91, 4-Chloro-5-(6-{3,9-diazabicyclo[3.3.1]nonan-9-yl}-5-methyl-1H-pyrazolo[3,4-b]pyrazin-3-yl)-2-methyl-2H-indazole, hydrochloride salt] reads 22 nM; that for `CCn1cc2c(Cl)c(-c3c[nH]c4nc(N5[C@@H]6CC[C@H]5C[C@@H](N)C6)cnc34)ccc2n1` [Example 26, endo-8-[7-(4-chloro-2-ethyl-2H-indazol-5-yl)-5H-pyrrolo[2,3-b]pyrazin-3-yl]-8-azabicyclo[3.2.1]octan-3-amine, hydrochloride salt], 14 nM.
